# Patent US10214491B2, “Activators and therapeutic applications thereof” (THE JOHNS HOPKINS UNIVERSITY, priority 2007, dated 2019)
# “Also recorded” adds a separate entry of the source.
# What was measured:
# [1] = tested on: Human intestinal endothelial cells; test: WST-1 cell viability assay, intestinal endothelial cells; assay type: cell-based; details: three days
# Protocol: (§1) The effect of the compounds selected using the screening assay on the viability of several tumor cell lines as well as diploid cell lines and cell strains was studied. Cells were plated in 96-well plates at a density of 10,000 cells/100 μL/well and were incubated overnight. The following day compound dilutions ranging from 0 to 40 μM were applied to the cells in triplicate and the cells were incubated with the compounds for three days. Cell viability was assayed using the WST-1 cell proliferation reagent (Roche Diagnostics, Germany) The WST-1 reagent was diluted 1:10 in cell culture media and 100 μL of the reagent dilution was applied onto cells followed by 1 hour incubation at +37° C. The specific absorbance was measured at 450 nm and a reference absorbance was measured at 690 nm. […] Analysis for Protein Levels
# A375 melanoma (WTp53) = test: WST-1 cell viability assay, A375; assay type: cell-based; details: for IC50: A375 melanoma (WTp53), three days, WST-1
# Protocol: as §1
# A375 melanoma cells = test: Flow cytometry cell cycle and apoptosis analysis; assay type: cell-based; details: A375, three days at 10 μM or six days at 5 μM
# Protocol: Cell cycle analysis and cellular apoptosis was assayed with flow cytometry (LSR, Beckton Dickinson). Cells were treated with the compounds and both floating and adherent cells were harvested and fixed in 70% ethanol at −20° C. followed by staining of DNA with propidium iodide. A total of 10,000 counts were collected and data was analysed using ModFit LT 3.1 software. Cells present in sub-G1 population were regarded as apoptotic.
# [2] = tested on: normal human primary melanocytes; test: WST-1 cell viability assay, melanocytes; assay type: cell-based; details: Melanocyte, three days
# Protocol: as §1
# [3] = tested on: p53, Mdm2 and p21 levels in A375 melanoma cells; test: Immunoblotting and immunofluorescence for p53, Mdm2 and p21 levels; assay type: cell-based; details: A375, 24 hours, 5 μM
# Protocol: To study the effect of compounds on endogenous protein levels, A375 melanoma cells were treated with the compounds for 24 hours. Cellular lysates were prepared in lysis buffer containing 0.5% NP-40 with proteinase inhibitors. Protein (20-30 μg) was separated by sodium dodecyl sulphate-polyacrylamide gel electrophoresis (SDS-PAGE) followed by transfer to PVDF membrane (Immobilon™-P, Millipore, Bedford, Mass., USA). Immunoblotting was carried out using DO-1 antibody for p53, 2A10 for Mdm2 and anti-p21 (Becton Dickinson) to detect p21, followed by secondary antibodies conjugated with horseradish peroxidase (p53) or biotin followed by streptavidin-horseradish peroxidase (Mdm2 and p21) after which proteins were detected with enhanced chemiluminescence (ECL, Amersham Life Sciences). Equal protein loading was verified using GAPDH (p9.B.88, Europa Bioproducts Ltd, UK) as a protein loading control.
# (§2) Immunofluorescence staining was carried out to determine the correct localisation of p53 and to detect H2AX phosphorylation indicative of genotoxic stress. Cells were treated with the compounds and fixed in paraformaldehyde (3.5 PFA, 25 min RT). The coverslips were permeabilised in 0.5% NP-40 and blocked in 3% bovine serum albumin (BSA). p53 was detected by staining with FL-393 antibody (Santa Cruz, 1:50, 1 h at +37° C.) followed by Alexa-594 conjugated secondary antibody (Molecular Probes, 1:200, 1 h at +37° C.), phospho-H2AX was detected by staining with anti-H2AX (P-Ser-139) antibody (Upstate, 1:200 1 h at +37° C.) followed by Alexa-488 conjugated secondary antibody (Molecular Probes, 1:200, 1 h at +37° C.). Nuclei were stained with Hoechst 33342. Images were captured using the Zeiss Axioplan fluorescence microscope equipped with Zeiss AxioCam HRc CCD-camera and AxioVision 4.5 software using 40×, NA=0,75 objective, Chroma 31000, Chroma41001 and 41004 filters for Hoechst, Alexa488 and Alexa594, respectively.
# [4] = tested on: p53DsRed reporter in PG3/9 melanoma cells (A375 clone); test: p53DsRed reporter activation assay (in vitro p53 activity assay); assay type: cell-based; details: for EC50: Homo sapiens, A-375, PG3/9 melanoma cells, 24 hours, read-out: effective concentration (EC50), p53DsRed reporter activation; for fraction of p53-reporter activated cells at high concentrations: apparently due to excessive cell death
# Protocol: The ability of the compounds to activate p53 was analyzed using a cell-based assay. To establish the assay, a stable cell transfectant expressing a p53-responsive reporter was generated. A375 melanoma cell line (ATCC CRL-1619) was transfected with a vector containing the p53 consensus element 13x repeat (13XRE) (Kern et al., 1991) cloned to a DsRed Express reporter vector (Clontech) to yield the vector “PG13DsRed”, hereafter termed as “p53DsRed”. […] The cell clone PG3/9 was used in the screen.
# The assay was carried out in a 96-well format and all plate handlings were done using liquid handling robots (Thermo CRS, Thermo Electron Corporation; Biomek FX, Beckman Coulter and Hamilton STAR, Hamilton Microlab). Cells were plated at 10,000 cells/100 μL/well onto 96-well ViewPlates (Packard) and incubated overnight at +37° C. and 5% CO2. Small molecule compound chemical libraries were purchased and diluted to dimethylsulfoxide (DMSO) at 10 mM concentration. The compounds were pin-transferred to plain media at approximately 3 μM concentration either as single (one compound/one well) or pools of compounds (two compounds/one well). The growth media was removed and replaced with media with the test compounds followed by incubation of the cells for 24 h at +37° C. and 5% CO2. […] Following the incubation, the cells were washed with phosphate buffered saline and fixed with paraformaldehyde (PFA, 4%, 25 min, RT) and cell nuclei were stained with Hoechst 33342 (Molecular Probes, 4 μg/mL, 2 min, RT).
# The fluorescence signals of Hoechst 33342 and DsRed reporter expression in the fixed cells were analyzed using ArrayScan 4.5 high-content screening platform (Cellomics) including an inverted microscope (Zeiss 200M) with 10× objective (Zeiss), Omega XF93 filter (Omega), ORCA-AG CCD camera (Hamamatsu). The algorithm used for image acquisition and analysis was Target Activation Bioapplication (Cellomics), which was set to analyse the total number of cells and the percentage of p53 reporter positive cells termed as “responders”. For each well, four images on both fluorescence channels were acquired corresponding to approximately 1700 cells in mock-treated wells. The mean number of responders was calculated for each well, and compounds causing reporter activation for more than two times the mean number of responders in the mock treated cells in each plate were regarded as hits.
# In the secondary screen the hits were collected and tested over 100 nM to 10 μM concentration range. The compound treatment time, cell fixations and stainings as well as fluorescence signal detection was as described above. Compounds providing consistent p53DsRed reporter activation at low μM concentration range were selected for further testing. The effective concentration 50 (EC50) was calculated using the following formula: […]
# WS-1 diploid fibroblast = test: WST-1 cell viability assay, WS-1; assay type: cell-based, human; details: three days
# Protocol: as §1
# RPMI7951 (MUTp53) = test: WST-1 cell viability assay, RPMI-7951; assay type: cell-based; details: three days
# Protocol: as §1
# In vivo toxicity tests = details: mice; for acute or chronic toxicities based on histological HE-stainings: i.p., 5, 10 and 20 mg/kg three times a week for three weeks; for toxicity by weight curves, macroscopical pathologies, hematoxylin-eosin staining of tissues: i.p., 5, 10 and 20 mg/kg, 9 doses/3 weeks
# Protocol: Acute and chronic toxicity of the compounds was tested on FVB/N mice. Female mice of 4-6 weeks old were purchased from Harlan and 2 animals were used per compound dose. The mice were injected intraperitoneally with the compounds three times a week for three weeks in 30 microL DMSO. Two animals received vehicle only (=30 μL DMSO). The animals were weighed prior to injections and were monitored for any signs of toxicity, distress or unusual behaviour. The animals were sacrificed three days after receiving the final injection. The liver, kidney, spleen, small intestine and thymus were excised and fixed in 4% paraformaldehyde overnight, and processed into paraffin-blocks. Haematoxylin-eosin staining (HE staining) of the tissues was performed using standard immunohistological techniques.
# [5] = tested on: phosphorylation of histone H2AX on serine-139 (γH2AX) in A375 melanoma cells; test: Phospho-H2AX immunofluorescence (genotoxic stress); assay type: cell-based; details: A375, 5 μM, 24 hours
# Protocol: as §2
# [6] = tested on: BC3-luc pleural effusion lymphoma cells; test: Orthotopic xenograft model of pleural effusion lymphoma; assay type: in vivo; details: NOD-SCID mice, 20 mg/kg i.p. seven times
# Protocol: An orthotopic xenograft model of pleural effusion lymphoma was used to assess the anti-tumor activities of compounds 15, 21 and 22. Female NOD-SCID mice (Charles River, France) were injected intraperitoneally with pleural effusion lymphoma cells carrying a stable NF-kappaB regulated luciferase reporter (BC3-luc cells) (Keller et al., 2006). The tumors were allowed to establish for three days after which the mice were imaged and divided into treatment (groups 4-5 mice per group). The compound treatments were initiated on day four. The mice received 2 mg/kg (cmp21) or 20 mg/kg (cmp15 and 22) every other/third day for seven times via i.p. injections, control mice received DMSO only. The mice were imaged prior to each compound injection. Imaging was carried out with Xenogen In Vivo Imaging System (IVIS), D-luciferin (Synchem OHG, Germany) was injected intraperitoneally (100 mg/kg) 10-15 min prior to each imaging. Quantitation was done using Igor Pro Carbon analysis software, bioluminescence was quantitated and plotted as total flux within a given ROI.
# [7] = tested on: B-cell lymphoma (Kaposi's sarcoma herpes virus-infected pleural effusion lymphoma) cells; details: cited from earlier work
Compound,"IC50 ([1]; Endothelial cell, 72 h)","IC50 (A375 melanoma (WTp53); Homo sapiens, A-375, 72 h)",cell cycle / apoptosis phenotype (A375 melanoma cells),"IC50 ([2]; Homo sapiens, 72 h)",EC50 [4],"IC50 (WS-1 diploid fibroblast; Homo sapiens, 72 h)","IC50 (RPMI7951 (MUTp53); Homo sapiens, RPMI-7951, 72 h)",acute or chronic toxicities based on histological HE-stainings (In vivo toxicity tests),"toxicity by weight curves, macroscopical pathologies, hematoxylin-eosin staining of tissues (In vivo toxicity tests)",other results
"COc1cccc2c(N)c3c(cnn3C)nc12 [Compound 1, 5-methoxy-1-methylH-pyrazolo[4,3-b]quinolin-9-amine]",13.1 µM,4.3 µM,G2-phase arrest and apoptosis,30.4 µM,3.3 µM,10.4 µM,14.7 µM,–,–,fold difference IC50 (A375)/ IC50 (WS-1) (A375 melanoma (WTp53); A375 melanoma versus WS-1 normal cells): 2.4 fold; Mdm2 induction [3]: most prominent; fraction of p53-reporter activated cells at high concentrations [4]: decrease in the fraction of p53-reporter activated cells
CN(C)CCCNc1nn2c(=O)c3ccccc3nc2c2ccccc12 [Compound 7],19.6 µM,3 µM,imminent G2-phase arrest and increased the apoptotic fraction of the cells,32.4 µM,6.6 µM,18.1 µM,16.8 µM,No acute or chronic toxicities were observed,did not show any apparent toxicity,cellular γH2AX response (genotoxic stress) [5]: induces genotoxic stress; also recorded: induced a cellular γH2AX response
"CCOC(=O)c1cnc2c(C)cc(C)cc2c1NCCCN(C)C [Compound 9, ethyl 4-(3-dimethylaminopropylamino)-6,8-dimethyl-quinoline-3-carboxylate]",19.6 µM,6.1 µM,G1-phase arrest,> 40 µM,4.6 µM,15.7 µM,17.8 µM,No acute or chronic toxicities were observed,did not show any apparent toxicity,Mdm2 induction [3]: most prominent
Cc1sc2nc3c4ccccc4c(NCCCN(C)C)nn3c(=O)c2c1C [Compound 15],–,–,–,–,5.4 µM,–,–,No acute or chronic toxicities were observed,did not show any apparent toxicity,inhibition of tumor cell growth (bioluminescence) [6]: noticeable inhibition of the tumor cell growth; cellular γH2AX response (genotoxic stress) [5]: induces genotoxic stress; also recorded: induced a cellular γH2AX response
"CCOc1ccc(C2=CC(c3cc(OC)c(OC)c(OC)c3)n3ncnc3N2)cc1 (stereo not drawn) [Compound 20, 5-(4-ethoxyphenyl)-7-(3,4,5-trimethoxyphenyl)-4,7-dihydro-[1,2,4]triazolo[1,5-α]pyrimidine]",–,–,–,–,0.6 µM,–,–,–,–,–
"Cc1cc(C)c2c(N)c3cccc(C)c3nc2n1 [Compound 23, 2,4,9-trimethylbenzo[b]-1,8-naphthyridin-5-amine]",–,–,–,–,2.1 µM,–,–,–,–,fraction of p53-reporter activated cells at high concentrations [4]: decrease in the fraction of p53-reporter activated cells
"COc1ccc(C2=N[C@@H](c3ccc(Cl)cc3)[C@@H](c3ccc(Cl)cc3)N2C(=O)N2CCNC(=O)C2)c(OC(C)C)c1 [Nutlin, nutlin-3a, reference compound]",–,–,–,–,–,–,–,–,–,IC50 [1]: 10.7 µM; IC50 (A375 melanoma (WTp53)): 7.2 µM; IC50 [2]: > 40 µM; B-cell lymphoma cell killing ([7]; in vitro and in vivo mouse models): highly effective agent inducing B-cell lymphoma; adverse side-effects ([7]; mouse): does not cause any adverse side-effects; IC50 (WS-1 diploid fibroblast): 20.6 µM; IC50 (RPMI7951 (MUTp53)): > 40 µM
